Test results from patent publication US20220132847A1, “CINNOLINIUM COMPOUNDS FOR USE IN A METHOD OF CONTROLLING UNWANTED PLANT GROWTH” (SYNGENTA CROP PROTECTION AG, priority 2019, published 2022).

How the values were obtained:
Assay in all cases: Post-emergence efficacy, glasshouse
Type in all cases: in vivo
[1] = test system: Eleusine indica (ELEIN); settings: Eleusine indica, post-emergence, 312 h, evaluated after 13 days, 100=total damage to plant, 0=no damage to plant, read-out: Control of weed species after post-emergence application, ELEIN; for pest or weed control at 1000 g/ha: Application Rate 1000 g/Ha
Experimental: (§1) Seeds of a variety of test species were sown in standard soil in pots. After cultivation for 14 days (post-emergence) under controlled conditions in a glasshouse (at 24/16° C., day/night; 14 hours light; 65% humidity), the plants were sprayed with an aqueous spray solution derived from the dissolution of the technical active ingredient formula (I) in a small amount of acetone and a special solvent and emulsifier mixture referred to as IF50 (11.12% Emulsogen EL360™+44.44% N-methylpyrrolidone+44.44% Dowanol DPM glycol ether), to create a 50 g/l solution which was then diluted to required concentration using 0.25% or 1% Empicol ESC70 (Sodium lauryl ether sulphate)+1% ammonium sulphate in water as diluent.
(§2) The test plants were then grown in a glasshouse under controlled conditions (at 24/16° C., day/night; 14 hours light; 65% humidity) and watered twice daily. After 13 days the test was evaluated (100=total damage to plant; 0=no damage to plant).
(§3) Ipomoea hederacea (IPOHE), Euphorbia heterophylla (EPHHL), Chenopodium album (CHEAL), Amaranthus palmeri (AMAPA), Lolium perenne (LOLPE), Digitaria sanguinalis (DIGSA), Eleusine indica (ELEIN), Echinochloa crus-galli (ECHCG), Setaria faberi (SETFA)

[2] = test system: Ipomoea hederacea (IPOHE); settings: Ipomoea hederacea, post-emergence, 312 h, evaluated after 13 days, 100=total damage to plant, 0=no damage to plant, read-out: Control of weed species after post-emergence application, IPOHE; for pest or weed control at 1000 g/ha: Application Rate 1000 g/Ha
Experimental: as §1, §2, §3

[3] = test system: Echinochloa crus-galli (ECHCG); settings: Echinochloa crus-galli, post-emergence, 312 h, evaluated after 13 days, 100=total damage to plant, 0=no damage to plant, read-out: Control of weed species after post-emergence application, ECHCG; for pest or weed control at 1000 g/ha: Application Rate 1000 g/Ha
Experimental: as §1, §2, §3

[4] = test system: Lolium perenne (LOLPE); settings: Lolium perenne, post-emergence, 312 h, evaluated after 13 days, 100=total damage to plant, 0=no damage to plant, read-out: Control of weed species after post-emergence application, LOLPE; for pest or weed control at 1000 g/ha: Application Rate 1000 g/Ha
Experimental: as §1, §2, §3

[5] = test system: Chenopodium album (CHEAL); settings: Chenopodium album, post-emergence, 312 h, evaluated after 13 days, 100=total damage to plant, 0=no damage to plant, read-out: Control of weed species after post-emergence application, CHEAL; for pest or weed control at 1000 g/ha: Application Rate 1000 g/Ha
Experimental: as §1, §2, §3

[6] = test system: Amaranthus palmeri (AMAPA); settings: Amaranthus palmeri, post-emergence, 312 h, evaluated after 13 days, 100=total damage to plant, 0=no damage to plant, read-out: Control of weed species after post-emergence application, AMAPA; for pest or weed control at 1000 g/ha: Application Rate 1000 g/Ha
Experimental: as §1, §2, §3

[7] = test system: Euphorbia heterophylla (EPHHL); settings: Euphorbia heterophylla, post-emergence, 312 h, evaluated after 13 days, 100=total damage to plant, 0=no damage to plant, read-out: Control of weed species after post-emergence application, EPHHL; for pest or weed control at 1000 g/ha: Application Rate 1000 g/Ha
Experimental: as §1, §2, §3

[8] = test system: Digitaria sanguinalis (DIGSA); settings: Digitaria sanguinalis, post-emergence, 312 h, evaluated after 13 days, 100=total damage to plant, 0=no damage to plant, read-out: Control of weed species after post-emergence application, DIGSA; for pest or weed control at 1000 g/ha: Application Rate 1000 g/Ha
Experimental: as §1, §2, §3

[9] = test system: Setaria faberi (SETFA); settings: Setaria faberi, post-emergence, 312 h, evaluated after 13 days, 100=total damage to plant, 0=no damage to plant, read-out: Control of weed species after post-emergence application, SETFA; for pest or weed control at 1000 g/ha: Application Rate 1000 g/Ha
Experimental: as §1, §2, §3

C[n+]1cc(CCC(=O)O)c2ccccc2n1 [Compound A56, 3-(2-methylcinnolin-2-ium-4-yl)propanoic acid 2,2,2-trifluoroacetate]
pest or weed control at 500 g/ha ([1]; Application Rate 500 g/Ha): 70%
pest or weed control at 500 g/ha ([2]; Application Rate 500 g/Ha): 30%
pest or weed control at 500 g/ha ([3]; Application Rate 500 g/Ha): 70%
pest or weed control at 500 g/ha ([4]; Application Rate 500 g/Ha): 10%
pest or weed control at 500 g/ha ([5]; Application Rate 500 g/Ha): 90%
pest or weed control at 500 g/ha ([6]; Application Rate 500 g/Ha): 100%
pest or weed control at 500 g/ha ([7]; Application Rate 500 g/Ha): 40%
pest or weed control at 500 g/ha ([8]; Application Rate 500 g/Ha): 100%
pest or weed control at 500 g/ha ([9]; Application Rate 500 g/Ha): 60%

CONC(=O)c1c[n+](C)nc2ccccc12 [Compound A4, N-methoxy-2-methyl-cinnolin-2-ium-4-carboxamide 2,2,2-trifluoroacetate]
pest or weed control at 1000 g/ha [1]: 20%
pest or weed control at 1000 g/ha [2]: 20%
pest or weed control at 1000 g/ha [3]: 10%
pest or weed control at 1000 g/ha [4]: 0%
pest or weed control at 1000 g/ha [5]: 40%
pest or weed control at 1000 g/ha [6]: 10%
pest or weed control at 1000 g/ha [7]: 50%
pest or weed control at 1000 g/ha [8]: 0%
pest or weed control at 1000 g/ha [9]: 10%

C[n+]1cc(CCC(=O)O)c2ccccc2n1 [Compound A55, 3-(2-methylcinnolin-2-ium-4-yl)propanoic acid chloride]
pest or weed control at 1000 g/ha [1]: 100%
pest or weed control at 1000 g/ha [2]: 70%
pest or weed control at 1000 g/ha [3]: 90%
pest or weed control at 1000 g/ha [4]: 20%
pest or weed control at 1000 g/ha [5]: 100%
pest or weed control at 1000 g/ha [6]: 90%
pest or weed control at 1000 g/ha [7]: 70%
pest or weed control at 1000 g/ha [8]: 100%
pest or weed control at 1000 g/ha [9]: 30%

COC(=O)c1c[n+](C)nc2ccccc12 [Compound A2]
pest or weed control at 1000 g/ha [1]: 70%
pest or weed control at 1000 g/ha [2]: 70%
pest or weed control at 1000 g/ha [3]: 30%
pest or weed control at 1000 g/ha [4]: 30%
pest or weed control at 1000 g/ha [5]: 70%
pest or weed control at 1000 g/ha [6]: 100%
pest or weed control at 1000 g/ha [7]: 70%
pest or weed control at 1000 g/ha [8]: 60%
pest or weed control at 1000 g/ha [9]: 60%

C[n+]1cc(C(=O)[N-]S(=O)(=O)c2ccc(Cl)s2)c2ccccc2n1 [Compound A39]
pest or weed control at 1000 g/ha [1]: 10%
pest or weed control at 1000 g/ha [2]: 30%
pest or weed control at 1000 g/ha [3]: 20%
pest or weed control at 1000 g/ha [4]: 0%
pest or weed control at 1000 g/ha [5]: 30%
pest or weed control at 1000 g/ha [6]: 80%
pest or weed control at 1000 g/ha [7]: 20%
pest or weed control at 1000 g/ha [8]: 10%
pest or weed control at 1000 g/ha [9]: 30%

C[n+]1cc(C(=O)[N-]S(=O)(=O)CCC(F)(F)F)c2ccccc2n1 [Compound A43]
pest or weed control at 1000 g/ha [1]: 90%
pest or weed control at 1000 g/ha [2]: 80%
pest or weed control at 1000 g/ha [3]: 30%
pest or weed control at 1000 g/ha [4]: 20%
pest or weed control at 1000 g/ha [5]: 30%
pest or weed control at 1000 g/ha [6]: 60%
pest or weed control at 1000 g/ha [7]: 90%
pest or weed control at 1000 g/ha [8]: 70%
pest or weed control at 1000 g/ha [9]: 50%
